Source: patent US6440405B1, “Quaternary ammonium functionalized dendrimers and methods of use therefor” (priority 1999, dated 2002)

How the values were obtained:
[1] = system: Staphylococcus aureus; conditions: reported results; cited from earlier work
[2] = system: recombinant E. coli strain TV 1048; test: Bioluminescence method (light-off response) with recombinant E. coli strain TV 1048; assay type: cell-based; conditions: at 5 min; by interpolation of bioluminescence against concentration curves

In the case of CCCCCCCCCCCC[N+](C)(C)C.[Cl-] [DTAC, n-dodecyltrimethyl ammonium chloride], the “effectiveness against S. aureus compared with D4ClNC12 (in words)” value [1] is given as “Somewhat less effective” and the “EC50 (concentration causing a 50% reduction of the bioluminescence)” value [2] is given as “about 2000 ppm”.
